Measured values reported in US6586404B1 (priority 1996, dated 2003).
Like-named read-outs stand apart in the source and are kept apart here.

Experiments:
in vivo = conditions: po
Source text: Once past the stomach, it is important that the glutathione be immediately available for absorption, as the desulfurases and peptidases from the pancreas, as well as the increase in pH, do tend to degrade the glutathione. […] Thus, by providing a high concentration of glutathione in the duodenum, without substantial dilution, the glutathione may be absorbed at a maximum rate.

guinea pigs = conditions: non-ascorbate deficient animals, double the dose of 3.75 mmol/kg daily; cited from earlier work
Mouse = conditions: pretreatment with GSH; cited from earlier work
[1] = system: systolic and diastolic blood pressure; conditions: cited from earlier work
[2] = human, in vivo, iv; cited from earlier work

N[C@@H](CCC(=O)N[C@@H](CS)C(=O)NCC(=O)O)C(=O)O [GSH, gamma-glutamyl-cysteinyl-glycine]
bioavailability (in vivo): ~90%
toxicity (guinea pigs): seen at double this dose
effect on morphine-induced lethality (Mouse): protects against morphine-induced lethality
time of return of blood pressure to baseline ([1]; 1,844 mg i.v. bolus): ≤ 30 min
blood pressure effect ([1]; 1,844 mg i.v. bolus, hypertensive patients and non-hypertensive diabetics): rapid and significant decrease in both systolic and diastolic blood pressure
blood pressure effect ([1]; 1,844 mg i.v. bolus, normal healthy subjects): no effect
blood pressure effect ([1]; 3,699 mg dose, normal subjects): significant decrease in the blood pressure values
half-life [2]: 14.1−9.2 minutes
volume of distribution of exogenous glutathione [2]: 176−107 Ml/Kg
